Read-outs that look alike come from different tables or passages of the source.
Experiments:
[1] = Metabolic stability assay, rat microsomes (values in parentheses); assay type: in vitro ADME; details: value in parentheses
[2] = Metabolic stability assay, CD-1 mouse microsomes; assay type: in vitro ADME; details: for half-life at 10 µM: both sexes
[3] = in vitro; assay type: in vitro ADME, human
[4] = in vitro; assay type: in vitro ADME, mouse
Protocol: Example compounds were dissolved in DMSO/H2O 90:10 to a final concentration of 10 mM for plasma stability determination and metabolic stability determination.
Human plasma (3-5 donors, Blutspendedienst SRK, Basel) and CD-1 mouse plasma (mixed gender pool >50 animals, Innovative Research, CA, USA) are both sodium citrate stabilized. The assay is performed in triplicates at 10 μM compound concentration and 37° C. Samples are taken at 0, 15, 60, and 240 minutes and stopped by precipitation with 2 volumes of acetonitrile. The supernatant is collected, evaporated and reconstituted in a 5% acetonitrile solution to be analyzed by HPLC/MS/MS. The resulting peak area counts are expressed in percent of the 0 value and used to determine the endpoint stability in % and the half life in minutes. In order to monitor assay integrity the degradation of propantheline is assayed with every experimental set.

[5] = Metabolic stability assay, human microsomes; assay type: in vitro ADME; details: for half-life at 10 µM: both sexes
[6] = amide bond
[7] = both, CD-1, mouse, microsomes, 10 µM
[8] = both, CD-1, mouse, microsomes, 1 h, 10 µM
[9] = both, CD-1, mouse, plasma, 10 µM
[10] = both, CD-1, mouse, plasma, 4 h, 10 µM
[11] = both, human, microsomes, 1 h, 10 µM
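For Plasma Stability 240 min mouse [% remain.] in this document: sodium citrate stabilized mouse plasma, parent compound quantified by HPLC/MS/MS relative to its peak area at time zero, run in triplicate.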
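For Plasma Stability T½ [min] mouse in this document: sodium citrate stabilized mouse plasma, parent compound quantified by HPLC/MS/MS relative to its peak area at time zero, run in triplicate.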

Metabolic Stability 60 min (rat) [% remain.] [1] | Metabolic Stability T½ [min] (rat) [1] | Metabolic Stability T½ [min] mouse [2, 7] | Metabolic Stability 60 min mouse [% remain.] [2, 8] | Plasma Stability T½ [min] hum ([3]; human, plasma, 10 µM) | Plasma Stability 240 min hum [% remain.] ([3]; human, plasma, 4 h, 10 µM) | Plasma Stability T½ [min] mouse [4, 9] | Plasma Stability 240 min mouse [% remain.] [4, 10] | Metabolic Stability T½ [min] hum ([5]; both, human, microsomes, 10 µM) | Metabolic Stability 60 min hum [% remain.] [5, 11] | half-life at 10 µM ([5]; human, microsomes) | Structure (SMILES) | other results
96 % remain. | 60 (60) min | > 60 min | 94 % remain. | > 240 min | 75 % remain. | > 240 min | 89 % remain. | > 60 min | 77 % remain. |  | CN1CCC[C@H](NC(=O)Cc2ccccc2)C(=O)N[C@H]2CN[C@H](COc3ccc(F)cc3C1=O)C2 [Ex. 406, N-[(1S,15S,18R)-7-fluoro-11-methyl-10,16-dioxo-3-oxa-11,17,20-triazatricyclo[16.2.1.0^4,9]henicosa-4,6,8-trien-15-yl]-2-phenylacetamide] | 
 |  |  | 55 % remain. | > 240 min | 100 % remain. | > 240 min | 65 % remain. |  | 37 % remain. | 0.6 h | CN1CCC[C@H](NC(=O)OCc2ccccc2)C(=O)N[C@@H]2C[C@@H](COc3ccc(F)cc3C1=O)N(C(=O)OC(C)(C)C)C2 [Ex. 403, tert-butyl (1S,15S,18R)-15-{[(benzyloxy)carbonyl]amino}-7-fluoro-11-methyl-10,16-dioxo-3-oxa-11,17,20-triazatricyclo[16.2.1.0^4,9]henicosa-4,6,8-triene-20-carboxylate] | half-life at 10 µM ([2]; CD-1, mouse, microsomes): 0.95 h; ring closure, yield of all isomers ([6]; from CN(CCC[C@H](NC(=O)OCc1ccccc1)C(=O)O)C(=O)c1cc(F)ccc1OC[C@@H]1C[C@@H](N)CN1C(=O)OC(C)(C)C, FDPP, DMF, 1.0 mM): 73%
32 % remain. |  |  | 4 % remain. | > 240 min | 88 % remain. | > 240 min | 81 % remain. |  | 1 % remain. | 0.133 h | CN1CCC[C@H](NCC(C)(C)C)C(=O)N2C[C@@H](Oc3ccccc3)C[C@H]2COc2cccc(c2)C1=O [Ex. 563, (4S,6S,10S)-14-methyl-10-(neopentylamino)-6-phenoxy-2-oxa-8,14-diazatricyclo[14.3.1.0^4,8]icosa-1(20),16,18-triene-9,15-dione] | half-life at 10 µM ([1]; read-out: Metabolic Stability T½ [min] (rat)): 31 min; half-life at 10 µM ([2]; CD-1, mouse, microsomes): 0.2 h
92 % remain. | 60 (60) min | > 60 min | 93 % remain. | > 240 min | 91 % remain. | > 240 min | 95 % remain. | > 60 min | 94 % remain. |  | CN1CCC[C@H](NC(=O)Cc2ccccc2)C(=O)N2C[C@@H](O)C[C@H]2COc2cccc(c2)C1=O [Ex. 574, N-[(4S,6S,10S)-6-hydroxy-14-methyl-9,15-dioxo-2-oxa-8,14-diazatricyclo[14.3.1.0^4,8]icosa-1(20),16,18-trien-10-yl]-2-phenylacetamide] | 
92 % remain. | 60 (60) min | > 60 min | 54 % remain. | > 240 min | 85 % remain. | > 240 min | 100 % remain. |  | 49 % remain. | 0.9 h | CO[C@H]1C[C@H]2COc3cccc(c3)C(=O)N(C)CCC[C@H](NC(=O)CC(C)(C)C)C(=O)N2C1 [Ex. 572, N-[(4S,6S,10S)-6-methoxy-14-methyl-9,15-dioxo-2-oxa-8,14-diazatricyclo[14.3.1.0^4,8]icosa-1(20),16,18-trien-10-yl]-3,3-dimethylbutanamide] | 

Structure (SMILES) | Metabolic Stability 60 min (rat) [% remain.] [1] | Metabolic Stability T½ [min] (rat) [1] | Metabolic Stability T½ [min] mouse [2, 7] | Metabolic Stability 60 min mouse [% remain.] [2, 8] | Plasma Stability T½ [min] hum ([3]; human, plasma, 10 µM) | Plasma Stability 240 min hum [% remain.] ([3]; human, plasma, 4 h, 10 µM) | Plasma Stability T½ [min] mouse [4, 9] | Plasma Stability 240 min mouse [% remain.] [4, 10] | Metabolic Stability T½ [min] hum ([5]; both, human, microsomes, 10 µM) | Metabolic Stability 60 min hum [% remain.] [5, 11] | half-life at 10 µM ([5]; human, microsomes) | other results
CN1CCC[C@H](N)C(=O)N2C[C@@H](OCc3ccc(-c4ccccc4)cc3)C[C@H]2COc2cccc(c2)C1=O [Ex. 570, (4S,65,10S)-10-amino-6-([1,1′-biphenyl]-4-ylmethoxy)-14-methyl-2-oxa-8,14-diazatricyclo[14.3.1.0^4,8]icosa-1(20),16,18-triene-9,15-dione] | 76 % remain. | 60 (60) min |  |  |  |  |  |  |  |  |  | Metabolic Stability 60 min mouse [% remain.] ([2]; mouse microsomes, 60 min): 69 % remain.; Metabolic Stability T½ [min] mouse ([2]; mouse, microsomes): > 60 min; Plasma Stability 240 min hum [% remain.] ([3]; human plasma, 240 min): 92 % remain.; Plasma Stability T½ [min] hum ([3]; human, plasma): > 240 min; Plasma Stability 240 min mouse [% remain.] ([4]; mouse plasma, 240 min): 100 % remain.; Plasma Stability T½ [min] mouse ([4]; mouse, plasma): > 240 min; Metabolic Stability 60 min hum [% remain.] ([5]; human microsomes, 60 min): 20 % remain.; Metabolic Stability T½ [min] hum ([5]; human, microsomes): 13 min
CN1C[C@H](NC(=O)OCc2ccccc2)C(=O)N(C)CC(=O)N2C[C@@H](NC(=O)OC(C)(C)C)C[C@H]2COc2cncc(c2)C1=O [Ex. 272, benzyl N-[(4S,6S,13S)-6-[(tert-butoxycarbonyl)amino]-11,15-dimethyl-9,12,16-trioxo-2-oxa-8,11,15,19-tetraazatricyclo[15.3.1.0^4,8]henicosa-1(21),17,19-trien-13-yl]carbamate] |  |  | > 60 min | 81 % remain. | > 240 min | 95 % remain. | > 240 min | 92 % remain. | > 60 min | 65 % remain. |  | ring closure, yield of all isomers ([6]; from CNCC(=O)N1C[C@@H](NC(=O)OC(C)(C)C)C[C@H]1COc1cncc(C(=O)N(C)C[C@H](NC(=O)OCc2ccccc2)C(=O)O)c1, T3P, i-Pr2NEt, CH2Cl2, 9.75 mM): 38%
